Our source for the Kd and stoichiometry N values is article PMC5681642.

The target of one test is T1, BTA121 (Borrelia turicatae, UniProt A0A0R9P931).
T1 construct: signal peptide and further N-terminal residues removed, putative PARP domain kept; N-terminal dodeca-His tag cut with TEV protease; E. coli BL21-CodonPlus(DE3)-RIPL; predominantly monomer, some dimer
In words: radioligand binding, Q-sepharose separation, scintillation counting. The source says:
radioligand binding, Q-sepharose separation, scintillation counting on BTA121 | BTA121 binds palmitate with micromolar Kd

Test [1] concerns the target Recombinant BTA121 (Borrelia turicatae), dodeca-His tag cleaved (Borrelia turicatae). In words: SEC; Phenomenex Yarra 3 µ SEC-2000 HPLC column, 1.0 mg/mL, 50 µg loaded, room temperature, 0.5 mL/min; molecular weight estimated with Bio-rad gel filtration standard.

As to `CCCCCCCCCCCCCCCC(=O)O` [palmitate], the Kd on BTA121 amounted to 229 µM.
For “Recombinant BTA121 (Borrelia turicatae), dodeca-His tag cleaved (from UniProt A0A0R9P931 1-445) (natural protein)”, the stoichiometry N in test [1] is 2.
